What all share (type): cell-based, human
The test system of experiment [1] is PDE3A1. In words: Phosphorylation and 14-3-3 binding of FLAG-tagged PDE3A1 in transfected HEK293 cells. Conditions: isoproterenol 90 sec, PMA 10 ng/ml 15 min. The protocol:
(§1) FIGS. 8A-8C Illustrate phosphorylation of PDE3A1 and PDE3A2 in response to PKA and PKC activation. HEK293 cells were transfected with FLAG-tagged PDE3A2 and PDE3A1. (A) Prior to lysis and immunoprecipitation with anti-FLAG antibodies, cells were treated with 1 µM isoproterenol for 90 sec or 10 ng/ml PMA for 15 min. (B) The experiment was carried out in cells incubated in the absence and presence of 100 μM IBMX before treatment with 1 µM isoproterenol for 90 sec. (C) FLAG-tagged PDE3A2 and PDE3A1, affinity-purified from transfected cells using anti-FLAG antibodies, were incubated in the absence or presence of 10 or 100 nM PKA and 200 μM ATP for 20 min at 30° C. Phosphorylation was analyzed by Western blotting with phosphospecific antibodies as indicated.
(§2) Furthermore, when affinity-purified FLAG-tagged PDE3A and PDE3A2 were phosphorylated in vitro by PKA, PDE3A2 was phosphorylated more robustly than PDE3A1 at both S312 and S428 (for both isoforms, S312 was phosphorylated more robustly than S428) […].
(§3) Activation of PKC by PMA in transfected HEK293 cells results in selective phosphorylation of PDE3A2 at S428: We compared the effects of PKC activation by PMA on the phosphorylation of FLAG-tagged PDE3A1 and PDE3A2 in transfected HEK293 cells.
(§4) Illustrative immunoprecipitation and immunoblotting: Endogenous or recombinant human PDE3A, its fragments or mutants, endogenous 14-3-3 or GST-14-3-3 proteins were immunoprecipitated by incubation overnight at 4° C. with anti-FLAG(M2)-coupled agarose beads or glutathione sepharose beads. Beads were centrifuged (5,000×g, 1 min) and washed four times with 1 ml buffer containing 20 mM MOPS pH 7.2, 15 mM MgCl2, 0.5% NP40 and 150 mM NaCl. Proteins were subjected to SDS-PAGE (8% polyacrylamide) and electrophoretic transfer to nitrocellulose membranes. Membranes were blocked using 5% nonfat milk in Tris-buffered saline (50 mM Tris pH 7.5, 150 mM NaCl, 0.1% Tween-20) for 1 h at room temperature and incubated with primary and HRP-conjugated secondary antibodies prepared in 5% (w/v) bovine serum albumin. Protein bands were visualized using an enhanced chemiluminescence detection system.
(§5) Treatment of cells with pharmacologic agents: HEK293 cells expressing the human PDE3A constructs were incubated at 37° C. in serum-free medium containing isoproterenol for 90 sec or PMA for 15 min. At the end of the incubation period, cells were solubilized in lysis buffer containing 20 mM MOPS pH 7.2, 15 mM MgCl2, 0.5% NP40, 150 mM NaCl, 5 mM EDTA, protease inhibitor cocktail and phosphatase inhibitor cocktail 3. Cellular debris was removed by centrifugation (1,000×g; 5 min), and cleared supernatants were used in the experiments.

The test system of a further experiment is PDE3A2. In words: Phosphorylation and 14-3-3 binding of FLAG-tagged PDE3A2 in transfected HEK293 cells. The protocol: as §1, §2, §3, §4, §5
Experiment [2] deals with PDE3A1. In words: cAMP-hydrolytic activity of FLAG-tagged PDE3A1 in transfected HEK293 cells. To be noted: 1 μM isoproterenol 90 sec, 1 mM dBcAMP 1 hour, 50 μM 8-pCPT-2′-O-Me-cAMP or 0.1 mM sodium butyrate 1 hour. The protocol:
FIG. 3 Illustrates an illustrative effect of d8-pCPT-2′-O-Me-cAMP and sodium butyrate on PDE3A1 activity, wherein HEK293 cells were transfected with FLAG-tagged PDE3A and treated with 50 μM d8-pCPT-2′-O-Me-cAMP, 0.1 mM sodium butyrate or 1 mM dBcAMP for 1 hour. PDE3A activity was assayed as described;
FIGS. 9A-9B illustrate stimulation of PDE3A2 and PDE3A1 activity in response to PKC and PKA activation. (A) HEK293 cells were transfected with FLAG-tagged PDE3A2, with and without alanine substitution at S428, and treated with 10 ng/ml PMA for 15 min or 1 mM dBcAMP for 1 hour. (B) HEK293 cells were transfected with FLAG-tagged PDE3A1, with and without alanine substitutions at S312 and S428, and treated with 1 μM isoproterenol for 90 sec, 10 ng/ml PMA for 15 min or 1 mM dBcAMP for 1 hour. PDE3 activity was assayed as described. PDE3A constructs were immunoprecipitated with anti-FLAG antibody, and phosphorylation was analyzed by immunoblotting with anti-FLAG and phosphospecific antibodies as indicated; and
PKA and PKC modulate the catalytic activity of PDE3A and PDE3A2 through distinct molecular mechanisms: In view of the reported effects of PKA and PKC on PDE3A activity^3-6, we examined the effects of phosphorylation at S312 and S428 on the cAMP-hydrolytic activity of PDE3A isoforms in transfected HEK293 cells. […] This stimulation was not observed when cells were treated with either the EPAC activator 8-pCPT-2′-O-Me-cAMP or with sodium butyrate (FIG. 3). […] To determine whether similar consequences of phosphorylation occur in the case of PDE3A isoforms, protein extracts from transfected HEK293 cells, untreated or exposed to either isoproterenol or PMA, were analyzed by gel-filtration chromatography, measurement of catalytic activity and Western blotting. Under basal conditions, PDE3 activity and protein was recovered in a biphasic pattern in low- and high-molecular-weight peaks (FIG. 5).
Measurement of cAMP-hydrolytic activity: cAMP-hydrolytic activity was quantified at 30° C. by the two-step snake-venom method with [^3H]cAMP (1 μM) as substrate; PDE3 activity was quantified by measuring activity in the absence and presence of cilostamide. The amount of protein used per assay and the incubation times were adjusted to ensure that no more than 20% of the total cyclic nucleotide was hydrolyzed during the assay.
as §5

Setting [3] is: isoproterenol 90 sec, PMA 10 ng/ml 15 min, dibutyryl cAMP 1 mM 1 hour, phosphospecific antibodies.

With `CC(C)NCC(O)c1ccc(O)c(O)c1` (stereo not drawn) [isoproterenol], in the experiment on PDE3A1 [1], the “binding of PDE3A1 to endogenous 14-3-3 (co-immunoprecipitation)” value is listed as “co-immunoprecipitation of endogenous 14-3-3”. Also, the “phosphorylation of PDE3A1 at S312” value with PDE3A1 [1] (dibutyryl cAMP 1 mM 1 hour, phosphospecific antibodies) was “phosphorylation of PDE3A1 at S312”. In addition, the “phosphorylation of PDE3A2 at S312 in the presence of IBMX” value with PDE3A2 (100 μM IBMX before isoproterenol for 90 sec) is “readily phosphorylated at S312”. Besides, in the experiment on PDE3A2 (setting [3]), the “phosphorylation of PDE3A2 at S312” value is on record as “little phosphorylation of PDE3A2” and the “phosphorylation of PDE3A2 at S428” value is given as “little phosphorylation of PDE3A2”. The “cAMP-hydrolytic activity of PDE3A1” value in the experiment with PDE3A1 [2] is given as “did not stimulate cAMP-hydrolytic activity”.

The values are drawn from patent publication US9513288B2, “Isoform-selective inhibitors and activators of PDE3 cyclic nucleotide phosphodiesterases” (The United States of America, as represented by the …, priority 2001, dated 2016).
